The source made the active and inactive calls. Cut-off read from the data, not from the text of the source, for most assays here: actives have a measured EC50 and inactives only a lower limit. Bounds are passed on as bounds.

Results on three molecules are retold here after ChEMBL document CHEMBL1201862, “PubChem BioAssay data set” (2004).

The target of experiment [1] is T1, Sentrin-specific protease 8 (Homo sapiens, UniProt Q96LD8).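 Note: luminescence read-out of SENP8 inhibition, dose-response confirmation following an ultra-high-throughput screen.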
T1 sequence (Q96LD8 whole entry): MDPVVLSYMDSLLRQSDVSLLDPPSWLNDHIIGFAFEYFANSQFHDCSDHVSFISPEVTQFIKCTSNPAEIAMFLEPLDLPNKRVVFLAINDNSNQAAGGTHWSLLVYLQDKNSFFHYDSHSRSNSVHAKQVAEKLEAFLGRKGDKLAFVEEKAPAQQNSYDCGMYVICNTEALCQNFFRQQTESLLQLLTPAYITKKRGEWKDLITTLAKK
The format is functional.

The target in experiment [2] is T2, Replicative DNA helicase DnaB (Mycobacterium tuberculosis, UniProt P9WMR3).
T2 sequence (P9WMR3 whole entry): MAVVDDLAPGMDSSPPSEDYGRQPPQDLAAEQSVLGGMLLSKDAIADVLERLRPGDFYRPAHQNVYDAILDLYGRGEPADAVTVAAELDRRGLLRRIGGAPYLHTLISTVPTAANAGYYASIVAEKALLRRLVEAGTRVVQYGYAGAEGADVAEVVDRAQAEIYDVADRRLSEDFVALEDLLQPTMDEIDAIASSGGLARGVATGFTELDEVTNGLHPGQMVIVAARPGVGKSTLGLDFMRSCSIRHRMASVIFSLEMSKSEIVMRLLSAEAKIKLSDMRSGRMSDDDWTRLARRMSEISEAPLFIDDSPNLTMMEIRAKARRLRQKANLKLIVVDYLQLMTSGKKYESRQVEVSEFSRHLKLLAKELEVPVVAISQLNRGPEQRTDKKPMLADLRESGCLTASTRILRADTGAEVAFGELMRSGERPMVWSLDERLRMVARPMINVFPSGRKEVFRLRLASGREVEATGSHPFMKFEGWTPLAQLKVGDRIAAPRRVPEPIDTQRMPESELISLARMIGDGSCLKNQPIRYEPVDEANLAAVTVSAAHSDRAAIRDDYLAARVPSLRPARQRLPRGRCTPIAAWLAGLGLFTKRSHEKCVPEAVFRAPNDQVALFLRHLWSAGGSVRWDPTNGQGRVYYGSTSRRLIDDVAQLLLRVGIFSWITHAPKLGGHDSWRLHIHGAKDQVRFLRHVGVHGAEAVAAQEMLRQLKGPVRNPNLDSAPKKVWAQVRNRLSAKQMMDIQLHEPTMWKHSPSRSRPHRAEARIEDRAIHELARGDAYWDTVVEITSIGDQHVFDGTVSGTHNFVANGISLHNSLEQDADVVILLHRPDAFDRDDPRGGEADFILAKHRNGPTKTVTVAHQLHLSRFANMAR
The experiment in a line: DnaB intein splicing inhibitors, dose response, biochemical, cell-free fluorescence (AID 449749). Format: functional.

The target in a further experiment is T3, Protein RecA (Mycobacterium tuberculosis, UniProt P9WHJ3).
T3 sequence (P9WHJ3 whole entry): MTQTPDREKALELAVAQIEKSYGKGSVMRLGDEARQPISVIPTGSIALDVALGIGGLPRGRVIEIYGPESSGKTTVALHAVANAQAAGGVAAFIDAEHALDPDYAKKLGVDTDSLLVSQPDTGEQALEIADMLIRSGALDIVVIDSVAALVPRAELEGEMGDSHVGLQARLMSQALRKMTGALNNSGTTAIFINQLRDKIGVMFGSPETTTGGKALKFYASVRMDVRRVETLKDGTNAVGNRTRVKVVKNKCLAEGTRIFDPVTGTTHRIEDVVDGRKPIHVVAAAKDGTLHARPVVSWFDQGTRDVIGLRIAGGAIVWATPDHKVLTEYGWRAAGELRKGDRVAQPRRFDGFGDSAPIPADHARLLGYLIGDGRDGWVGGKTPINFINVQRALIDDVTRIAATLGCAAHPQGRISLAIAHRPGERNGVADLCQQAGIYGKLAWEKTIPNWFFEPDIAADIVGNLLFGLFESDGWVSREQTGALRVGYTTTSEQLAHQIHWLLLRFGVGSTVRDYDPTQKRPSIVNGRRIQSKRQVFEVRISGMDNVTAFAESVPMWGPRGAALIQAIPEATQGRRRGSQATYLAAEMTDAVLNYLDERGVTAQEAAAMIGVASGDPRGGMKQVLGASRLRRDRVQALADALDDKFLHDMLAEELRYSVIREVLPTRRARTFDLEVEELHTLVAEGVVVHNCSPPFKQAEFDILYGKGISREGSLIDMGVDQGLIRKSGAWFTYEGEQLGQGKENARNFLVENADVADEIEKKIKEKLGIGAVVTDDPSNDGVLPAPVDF
In words: Fluorescence Cell-Free Homogeneous Dose Retest to Identify Inhibitors of RecA-Intein Splicing Activity. [Related pubchem assays (depositor defined):AID2097, AID2223, AID489010, AID492950]. The format is functional.

The next experiment deals with Streptococcus. In words: GAS UMAA2166 growth inhibition – luminescence, BacTiterGlo, counter-screen for streptokinase expression inhibitor project, dose response (AID 1915).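 Note: potency for reduction of bacterial viability or growth.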 The format is functional, organism-based. (The purpose of a counterscreen is to sort out artefacts and off-target activity.)
Experiment [3] concerns Streptococcus sp. 'group A'. The experiment in a line: Streptococcus pyogenes SK(-)GAS viability under kanamycin – luminescence, BacTiterGlo, confirmation, counter-screen for streptokinase expression inhibitor project, dose response (AID 1900). Format: functional, organism-based.

With `CC1OC(Nc2cccc3ccccc23)C(O)C(O)C1O` (configuration not stated), in experiment [1], the IC50 (in general, the concentration needed to halve the response being measured) was 6.06 µM (active). In addition, the AC50 (commonly the midpoint of the concentration-response curve, whichever way the signal moves) in experiment [2] was > 380 µM (inactive). Also, the concentration for a half-maximal effect (EC50) (in general, the concentration that produces a half-maximal response) on Protein RecA was 75.1 µM (active).

Regarding `O=C1C=C(Nc2ccccc2)c2ccccc2C1=O`, the IC50 in experiment [1] was 9.45 µM (active). The half-maximal activity concentration (AC50) in experiment [2] was 0.664 µM (active). In addition, the EC50 with Streptococcus is 8.86 µM (active); on Protein RecA, 0.723 µM (active); in experiment [3], 1.77 µM (active).

Turning to `O=C(Nc1ccccc1)c1nnsc1[S+]([O-])c1ccc(Cl)cc1` (configuration not stated), the AC50 in experiment [2] was 0.964 µM (active). The results for the EC50 (in the experiment with Streptococcus; on Protein RecA; in experiment [3]) were 3.79 µM (active), 5.92 µM (active) and 2.11 µM (active), respectively.
